According to US20250074911A1, “MACROCYCLIC BTK INHIBITORS” (Crossfire Oncology Holding B.V., priority 2021, published 2025):

How the values were obtained:
REC-1 T474I cell lines = assay: Cell proliferation assay REC-1 BTK T474I knock-in cells (ATPlite, 72 hours); type: cell-based; conditions: Homo sapiens, Rec1; 72 hours; read-out: IC50 REC-1 T474I
In short: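 REC-1 cells carrying CRISPR knock-in mutant BTK, single-cell cloned and sequence-confirmed, were exposed to compound for 72 h and read by ATPlite luminescence. Percentage growth was calculated against the signal at the start of incubation and against untreated 0.3% DMSO wells as maximum growth.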

BTK T474I = BTK T474I (Homo sapiens (Human), UniProt Q06187, T474I); assay: Binding kinetics measurements (Surface Plasmon Resonance) on BTK T474I; conditions: target residence time, SPR
Sequence of BTK T474I (Q06187 whole entry T474I): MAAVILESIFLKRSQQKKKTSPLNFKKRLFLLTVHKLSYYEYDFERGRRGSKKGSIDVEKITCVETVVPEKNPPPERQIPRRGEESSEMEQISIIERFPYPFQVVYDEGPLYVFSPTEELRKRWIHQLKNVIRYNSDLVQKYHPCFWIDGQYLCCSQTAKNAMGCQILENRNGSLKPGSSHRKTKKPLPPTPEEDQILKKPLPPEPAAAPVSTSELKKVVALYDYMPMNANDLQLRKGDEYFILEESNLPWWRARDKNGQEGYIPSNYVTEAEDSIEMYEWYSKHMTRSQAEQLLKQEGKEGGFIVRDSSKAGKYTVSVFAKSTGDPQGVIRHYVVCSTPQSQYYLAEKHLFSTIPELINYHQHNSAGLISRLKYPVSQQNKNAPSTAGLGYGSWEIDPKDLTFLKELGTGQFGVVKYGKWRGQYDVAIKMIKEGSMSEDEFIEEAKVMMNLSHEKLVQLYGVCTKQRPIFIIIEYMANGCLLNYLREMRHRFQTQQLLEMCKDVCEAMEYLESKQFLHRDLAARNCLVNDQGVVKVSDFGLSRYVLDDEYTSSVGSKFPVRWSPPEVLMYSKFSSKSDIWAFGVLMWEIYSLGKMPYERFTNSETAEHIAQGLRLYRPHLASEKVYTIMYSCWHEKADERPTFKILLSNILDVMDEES
Experimental: (§1) Binding kinetics measurements on wt-BTK, BTK […], BTK […], BTK […] and BTK […] (Surface Plasmon Resonance) Streptavidin-coated chips (Cat. No. BR100531), disposables and maintenance kits for Biacore were purchased from Cytiva (Eindhoven, The Netherlands). […] Remaining streptavidin was blocked with biocytin. Immobilization was performed at 4° C. Subsequent assay steps were conducted at 22° C. After changing buffer to Biacore buffer with 1% (v/v) dimethylsulfoxide (DMSO), a pre-run was performed for a period of at least 30 min at a flow rate of 30 μl/min to obtain a stable surface. The kinetic constants of the compounds were determined with single cycle kinetics with five consecutive injections with an increasing compound concentration with ranges of 3.16-316 nM. […] To circumvent problems of mass transport limitation, a flow rate of 30 μl/min was used. A blank run with the same conditions was performed before the compound was injected. The SPR sensorgrams were analyzed with Biacore Evaluation Software by using a method of double referencing. First the reference channel was subtracted from the channel containing immobilized protein. Subsequently, the reference curve obtained with buffer injections was subtracted. […] Compounds that bound according to an induced fit model were fitted with a two-state reaction model. The kinetic constants (ka, […], KD) of duplicates were geometrically averaged. […] Target residence for an induced fit model was calculated as described (Tummino and Copeland, 2008).

[1] = molecular target: full-length BTK C481S enzyme (Homo sapiens (Human), UniProt Q06187, C481S); assay: Biochemical kinase assay BTK C481S (IMAP)
Sequence of full-length BTK C481S enzyme (Q06187 whole entry C481S): as the sequence (Q06187 whole entry T474I) above, with I474T, C481S counted along it
In short: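 Full-length BTK C481S (1.2 nM) was pre-incubated with compound for 1 h at room temperature in the dark, then reacted with fluorescein-labelled MBP-derived peptide (50 nM) and ATP (7 μM) for 2 h. Reactions were quenched with IMAP binding solution, and IC50 values were derived from fluorescence polarization.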

[2] = molecular target: full-length wt-BTK enzyme (Homo sapiens (Human), UniProt Q06187); assay: Biochemical kinase assay wt-BTK (IMAP)
Sequence of full-length wt-BTK enzyme (Q06187 whole entry): as the sequence (Q06187 whole entry T474I) above, with I474T counted along it
In short: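 IMAP fluorescence polarization assay: 1.2 nM enzyme pre-incubated 1 h with compound at room temperature, then 50 nM fluorescein-labeled MBP-derived peptide and 4 μM ATP added. Reaction ran 2 h at room temperature in the dark before quenching with IMAP binding solution.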

wt-BTK = wt-BTK (Homo sapiens (Human), UniProt Q06187); assay: Binding kinetics measurements (Surface Plasmon Resonance) on wt-BTK; conditions: target residence time, SPR
Sequence of wt-BTK (Q06187 whole entry): as the sequence (Q06187 whole entry T474I) above, with I474T counted along it
Experimental: as §1

[3] = tested on: wt-REC-1 mantle cell lymphoma cells; assay: Cell proliferation assay wt-REC-1 (ATPlite, 72 hours); type: cell-based; conditions: 72 h; read-out: IC50 wt-REC-1
In short: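 Luminescent viability read over 72 h, start-of-incubation signal recorded separately to separate growth from cell death. Percentage growth referenced to compound-free 0.3% DMSO wells; IC50 from 4-parameter logistic fit.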

[4] = tested on: wt-TMD8 diffuse large B-cell lymphoma cells; assay: Cell proliferation assay wt-TMD8 (ATPlite, 120 hours); type: cell-based; conditions: B-cell; wt-TMD8 cells, 120 hours, ATPlite; read-out: IC50 wt-TMD8
In short: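 wt-TMD8 DLBCL cells, 1600 per well in RPMI-1640 with 10% FBS, rested ≥5 h then exposed to compound for 120 h at 37° C, 5% CO2. Viability read by ATPlite luminescence; percentage growth calculated relative to start-of-incubation signal and untreated 0.3% DMSO maximum growth.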

Structure (SMILES) | Tau (h) BTK T474I (Act) (BTK T474I) [h] | IC50 [1] [nM] | IC50 [2] [nM] | Tau (h) wt-BTK (Act) (wt-BTK) [h] | IC50 [3] [nM] | IC50 [4] [nM] | IC50 (REC-1 T474I cell lines) [nM]
Nc1ncc2n3c(nc(-c4ccc(C(=O)Nc5cc(C6CC6)ccn5)cc4)c13)[C@@H]1CC[C@H](C1)NC(=O)CCOCC/C=C/2 [Example 223] | – | < 5 | < 5 | 2.52 | < 100 | < 100 | 100 to 500
COc1cc(-c2nn3c4c(cnc(N)c24)/C=C/COCCC(=O)N[C@@H]2CCC[C@@H]3C2)ccc1C(=O)Nc1cc(C(F)(F)F)ccn1 [Example 188] | >24 | < 5 | < 5 | – | < 100 | < 100 | < 100
Nc1ncc2c3c1c(-c1ccc(C(=O)Nc4cc(C(F)(F)F)ccn4)cc1)nn3[C@@H]1CN[C@H](C1)C(=O)NCCCCC/C=C/2 [Example 225] | 1.19 | < 5 | < 5 | 3.59 | < 100 | – | 500 to 10000
COc1ccc(F)cc1C(=O)NCc1ccc(-c2nc3n4c(cnc(N)c24)/C=C/CCN[C@H](C)CC(=O)N[C@@H]2CCC[C@@H]3C2)cc1 [Example 212] | – | < 5 | < 5 | – | < 100 | < 100 | 500 to 10000
C[C@@H]1CCn2nc(-c3ccc(Oc4ccccc4)cc3)c3c(N)ncc(c32)/C=C/CCCCCC(=O)N1 [Example 173] | – | < 5 | < 5 | – | < 100 | < 100 | 500 to 10000
Nc1ncc2c3c1c(-c1ccc(C(=O)Nc4cc(F)ccn4)cc1)nn3[C@@H]1CCC[C@H](C1)NC(=O)CCCCC/C=C/2 [Example 196] | – | < 5 | < 5 | – | < 100 | < 100 | < 100
Nc1ncc2n3c(nc(-c4ccc(C(=O)Nc5cc(C(F)(F)F)ccn5)cc4)c13)[C@@H]1CC[C@H](C1)NC(=O)CNCC/C=C/2 [Example 209] | – | < 5 | < 5 | – | < 100 | < 100 | 500 to 10000
CN1CC/C=C/c2cnc(N)c3c(-c4ccc(C(=O)Nc5cc(C(F)(F)F)ccn5)cc4)nn(c23)[C@@H]2CCC[C@H](C2)NC(=O)C1 [Example 30] | – | < 5 | < 5 | – | < 100 | < 100 | 100 to 500
C[C@@H]1CCn2nc(-c3ccc(C(=O)Nc4cc(C(F)(F)F)ccn4)cc3)c3c(N)ncc(c32)/C=C/CN2CC[C@H](C2)C(=O)N1 [Example 148] | – | < 5 | < 5 | – | 100 to 1000 | < 100 | 500 to 10000
Nc1ncc2c3c1c(-c1ccc(C(=O)Nc4ccccn4)cc1)nn3[C@@H]1CCC[C@H](C1)NC(=O)CCCCC/C=C\C2 [Example 102b] | – | < 5 | 5 to 50 | – | 100 to 1000 | < 100 | 500 to 10000
Nc1ncc2c3c1c(-c1ccc(C(=O)Nc4cc(C(F)(F)F)ccn4)cc1)nn3[C@@H]1CCC[C@H](C1)NC(=O)CCCCC/C=C/2 [Example 37] | – | < 5 | < 5 | – | < 100 | < 100 | < 100
C[C@@H]1CC(=O)N[C@@H]2CCC[C@H](C2)n2nc(-c3ccc(C(=O)Nc4cc(F)ccn4)cc3)c3c(N)ncc(c32)/C=C/CCN1 [Example 191] | – | < 5 | < 5 | – | < 100 | < 100 | < 100
Nc1ncc2c3c1c(-c1ccc(C(=O)Nc4cc(C(F)(F)F)ccn4)cc1)nn3[C@@H]1CCCN(C1)C(=O)CCCC/C=C/2 [Example 77] | – | 5 to 50 | 5 to 50 | – | 100 to 1000 | 100 to 1000 | 500 to 10000

More lines, main results first:

Tau (h) BTK T474I (Act) (BTK T474I) [h] | IC50 [1] [nM] | IC50 [2] [nM] | Tau (h) wt-BTK (Act) (wt-BTK) [h] | IC50 [3] [nM] | IC50 [4] [nM] | Structure (SMILES) | IC50 (REC-1 T474I cell lines) [nM]
0.93 | < 5 | < 5 | >24 | < 100 | < 100 | N#Cc1ccnc(NC(=O)c2ccc(-c3nn4c5c(cnc(N)c35)/C=C/CCN3CC[C@H]3C(=O)N[C@@H]3CC[C@@H]4C3)cc2)c1 [Example 186] | < 100
– | < 5 | < 5 | 2.76 | 1000 to 10000 | – | CC(=O)N1C[C@@H]2C[C@@H]1C(=O)NCCCCC/C=C/c1cnc(N)c3c(-c4ccc(C(=O)Nc5cc(C(F)(F)F)ccn5)cc4)nn2c13 [Example 226] | 500 to 10000
– | < 5 | < 5 | – | < 100 | < 100 | Nc1ncc2c3c1c(-c1ccc(C(=O)Nc4cc(C(F)(F)F)ccn4)cc1)nn3[C@@H]1CCC[C@H](C1)NC(=O)CCCC[C@@H](O)/C=C/2 [Example 12] | 500 to 10000
– | < 5 | < 5 | – | 100 to 1000 | < 100 | Nc1ncc2c3c1c(-c1ccc(C(=O)Nc4cc(C(F)(F)F)ccn4)cc1)nn3[C@@H]1CCCN(C1)C(=O)CCCCC/C=C/2 [Example 78] | 500 to 10000
– | 5 to 50 | 50 to 500 | – | 100 to 1000 | 100 to 1000 | Nc1ncc2c3c1c(-c1ccc(C(=O)Nc4ccccn4)cc1)nn3[C@@H]1CCC[C@H](C1)NC(=O)COC/C=C\C2 [Example 104b] | 500 to 10000
– | < 5 | < 5 | – | 100 to 1000 | < 100 | C[C@@H]1CCn2nc(-c3ccc(C(=O)Nc4cc(C(F)(F)F)ccn4)cc3)c3c(N)ncc(c32)/C=C/CN2CC[C@H]2C(=O)N1 [Example 55] | 500 to 10000
– | < 5 | < 5 | – | 100 to 1000 | < 100 | CN1C/C=C/c2cnc(N)c3c(-c4ccc(C(=O)Nc5cc(C(F)(F)F)ccn5)cc4)nn(c23)[C@@H]2CCCN(C2)C(=O)CCCC1 [Example 82] | 500 to 10000
– | 50 to 500 | 50 to 500 | – | 1000 to 10000 | 1000 to 10000 | C[C@@H]1CCn2nc(-c3cnn(Cc4ccccc4)c3)c3c(N)ncc(c32)/C=C/CCCCCC(=O)N1 [Example 171] | 500 to 10000
– | < 5 | < 5 | – | < 100 | < 100 | Nc1ncc2c3c1c(-c1ccc(C(=O)Nc4ccccn4)cc1)nn3[C@@H]1CCC[C@H](C1)NC(=O)CCCC/C=C/2 [Example 23] | 100 to 500
– | < 5 | < 5 | – | < 100 | < 100 | COc1cc(-c2nn3c4c(cnc(N)c24)/C=C/CCCCCC(=O)N[C@@H]2CCC[C@@H]3C2)ccc1C(=O)Nc1cc(C(F)(F)F)ccn1 [Example 197] | 100 to 500
– | < 5 | < 5 | – | 100 to 1000 | < 100 | COc1ccc(F)cc1C(=O)NCc1ccc(-c2nc3n4c(cnc(N)c24)/C=C/CCNCC(=O)N[C@@H]2CC[C@@H]3C2)cc1 [Example 219] | 500 to 10000
– | 50 to 500 | 5 to 50 | – | 100 to 1000 | 100 to 1000 | Nc1ncc2c3c1c(-c1ccc(C(=O)Nc4cc(C(F)(F)F)ccn4)cc1)nn3[C@@H]1CCC[C@H](C1)C(=O)NCC/C=C\C2 [Example 86] | 500 to 10000
– | < 5 | < 5 | – | < 100 | < 100 | Nc1ncc2c3c1c(-c1ccc(C(=O)Nc4cc(C(F)(F)F)ccn4)cc1)nn3[C@@H]1CCCN(C1)C(=O)CCCCCCCC/C=C/2 [Example 81] | 100 to 500
– | < 5 | < 5 | – | < 100 | < 100 | CC(=O)N1CC/C=C/c2cnc(N)c3c(-c4ccc(C(=O)Nc5cc(C(F)(F)F)ccn5)cc4)nn(c23)[C@@H]2CCC[C@H](C2)NC(=O)CC1 [Example 36] | 100 to 500
